This is an account of results in paper PMC4051601, “Identification of NAD(P)H Quinone Oxidoreductase Activity in Azoreductases from P. aeruginosa: Azoreductases and NAD(P)H Quinone Oxidoreductases Belong to the Same FMN-Dependent Superfamily of Enzymes” (PLoS ONE, 2014).

For one test, the target named is T1, paAzoR3 (PA3223) (Pseudomonas aeruginosa, UniProt Q9HZ17).
T1 construct: gene azoR3; pure recombinant protein, expressed and purified as described previously
T1 sequence (Q9HZ17 1-213): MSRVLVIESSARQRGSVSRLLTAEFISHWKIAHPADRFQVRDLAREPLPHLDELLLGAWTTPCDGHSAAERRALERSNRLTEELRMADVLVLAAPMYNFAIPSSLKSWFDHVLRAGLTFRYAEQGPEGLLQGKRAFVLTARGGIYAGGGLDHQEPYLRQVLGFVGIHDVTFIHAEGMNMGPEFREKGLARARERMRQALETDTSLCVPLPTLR
The test can be described thus: NADH oxidation at […] nm. In kind it is biochemical. Conditions: 50 uM quinone, 500 uM NADH, 20 mM Tris-HCl pH 8, 100 mM NaCl, 5% DMSO; only a specific rate given.

For test [1], the target named is T2, paAzoR1 (PA0785) (Pseudomonas aeruginosa, UniProt Q9I5F3).
T2 construct: gene azoR1; pure recombinant protein, expressed and purified as described previously; dimer with FMN
T2 sequence (Q9I5F3 1-212): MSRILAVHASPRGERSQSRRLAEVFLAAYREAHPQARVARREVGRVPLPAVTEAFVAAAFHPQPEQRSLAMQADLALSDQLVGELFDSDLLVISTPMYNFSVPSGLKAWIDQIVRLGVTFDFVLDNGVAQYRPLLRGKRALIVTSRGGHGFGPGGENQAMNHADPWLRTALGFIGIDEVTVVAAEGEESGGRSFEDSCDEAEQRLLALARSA
The test can be described thus: X-ray crystallography, […] A. In kind it is binding.

For test [2], the target named is T2, paAzoR1 (PA0785). Nature of the test: NADPH oxidation at […] nm. As to conditions: 50 uM quinone, 500 uM NADPH, 20 mM Tris-HCl pH 8, 100 mM NaCl, 5% DMSO; only a specific rate given. In kind it is biochemical.
Test [3] addresses T2, paAzoR1 (PA0785). The test can be described thus: X-ray crystallography, […] A. In kind it is binding. As to conditions: FMN-bound enzyme; one of two active sites; occupancy 0.5; hydrogen bond to Tyr131; co-crystallised with 2 mM ligand, pH 8.

On to `CC1=CC(=O)c2c(O)cccc2C1=O` [Plu, Plumbagin], for which, at paAzoR3 (PA3223), the “NADH oxidation at 340 nm” value is given as “paAzoR3 prefers naphthoquinones e.g. Plu (Fig. 3c)”.

Turning to `Cc1cc2nc3c(=O)[nH]c(=O)nc-3n(C[C@H](O)[C@H](O)[C@H](O)COP(=O)(O)O)c2cc1C` [FMN], the “X-ray crystallography, 1.8 A” value at paAzoR1 (PA0785) [1] (structure with AQN, FMN also seen in the UQ1 complex (4N9Q)) is “AQN also forms π-π stacking interactions with the central ring of FMN”.

Take `O=C1c2ccccc2C(=O)c2cc(S(=O)(=O)O)ccc21` [AQN, anthraquinone-2-sulphonate]: on paAzoR1 (PA0785) [1] (FMN-bound enzyme, one of two active sites, pi-stacking on FMN, co-crystallised with 2 mM ligand, pH 8), the “X-ray crystallography, 1.8 A” value was “structures of paAzoR1 bound to two quinone substrates (UQ1 and AQN) have been solved”.

For the compound `O=C1C=CC(=O)C=C1` [Bzq, Benzoquinone], the “NADPH oxidation at 340 nm” value at paAzoR1 (PA0785) [2] was “paAzoR1 has a preference for benzoquinones e.g. Bzq (Fig. 3a)”.

As for `COC1=C(OC)C(=O)C(CC=C(C)C)=C(C)C1=O` [UQ1, Coenzyme Q1], the “X-ray crystallography, 2.0 A” value at paAzoR1 (PA0785) [3] is “structures of paAzoR1 bound to two quinone substrates (UQ1 and AQN) have been solved”.
